Legend:
CCRF-CEM = assay: NCI cytotoxicity screen, Leukemia panel; assay type: cell-based; conditions: Homo sapiens, single dose 10 µM, negative = lethal, read-out: Percent growth inhibition
Experimental: (§1) Cytotoxicity was performed at National Cancer Institute (NCI), Bethesda, USA as per their protocols.

HL-60(TB) = assay: NCI cytotoxicity screen, Leukemia panel; assay type: cell-based; conditions: Homo sapiens, HL-60, HL-60(TB); single dose 10 µM; negative = lethal; read-out: Percent growth inhibition
Experimental: as §1

K-562 = assay: NCI cytotoxicity screen, Leukemia panel; assay type: cell-based; conditions: Homo sapiens, K562; K-562; single dose 10 µM; negative = lethal; read-out: Percent growth inhibition
Experimental: as §1

MOLT-4 = assay: NCI cytotoxicity screen, Leukemia panel; assay type: cell-based; conditions: Homo sapiens, MOLT-4, MOLT-4; single dose 10 µM; negative = lethal; read-out: Percent growth inhibition
Experimental: as §1

RPMI-8226 = assay: NCI cytotoxicity screen, Leukemia panel; assay type: cell-based; conditions: Homo sapiens; RPMI-8226; single dose 10 µM; negative = lethal; read-out: Percent growth inhibition
Experimental: as §1

SR = assay: NCI cytotoxicity screen, Leukemia panel; assay type: cell-based; conditions: Homo sapiens, single dose 10 µM, negative = lethal, read-out: Percent growth inhibition
Experimental: as §1

NCI-522 = assay: NCI cytotoxicity screen, Non-Small Cell Lung Cancer panel; assay type: cell-based, human; conditions: Homo sapiens; NCI-522; single dose 10 µM; negative = lethal; read-out: Percent growth inhibition
Experimental: as §1

NCI-H226 = assay: as above; assay type: cell-based, human; conditions: Homo sapiens, single dose 10 µM, negative = lethal, read-out: Percent growth inhibition
Experimental: as §1

NCI-H23 = assay: as above; assay type: cell-based, human; conditions: Homo sapiens, single dose 10 µM, negative = lethal, read-out: Percent growth inhibition
Experimental: as §1

NCI-H322M = assay: as above; assay type: cell-based, human; conditions: Homo sapiens, single dose 10 µM, negative = lethal, read-out: Percent growth inhibition
Experimental: as §1

HCC-2998 = assay: NCI cytotoxicity screen, Colon Cancer panel; assay type: cell-based, human; conditions: Homo sapiens; HCC-2998; single dose 10 µM; negative = lethal; read-out: Percent growth inhibition
Experimental: as §1

KM12 = assay: NCI cytotoxicity screen, Colon Cancer panel; assay type: cell-based, human; conditions: Homo sapiens, single dose 10 µM, negative = lethal, read-out: Percent growth inhibition
Experimental: as §1

SW-620 = assay: NCI cytotoxicity screen, Colon Cancer panel; assay type: cell-based, human; conditions: Homo sapiens, single dose 10 µM, negative = lethal, read-out: Percent growth inhibition
Experimental: as §1

LOX IMVI = assay: NCI cytotoxicity screen, Melanoma panel; assay type: cell-based, human; conditions: Homo sapiens, single dose 10 µM, negative = lethal, read-out: Percent growth inhibition
Experimental: as §1

M14 = assay: NCI cytotoxicity screen, Melanoma panel; assay type: cell-based, human; conditions: Homo sapiens, single dose 10 µM, negative = lethal, read-out: Percent growth inhibition
Experimental: as §1

UACC-62 = assay: NCI cytotoxicity screen, Melanoma panel; assay type: cell-based, human; conditions: Homo sapiens, single dose 10 µM, negative = lethal, read-out: Percent growth inhibition
Experimental: as §1

MALME-3M = assay: NCI cytotoxicity screen, Melanoma panel; assay type: cell-based; conditions: Homo sapiens; MALME-3M; single dose 10 µM; negative = lethal; read-out: Percent growth inhibition
Experimental: as §1

MDA-MB-435 = assay: NCI cytotoxicity screen, Melanoma panel; assay type: cell-based; conditions: Homo sapiens, MDA-MB-435, read-out: Percent growth inhibition
Experimental: as §1

SK-MEL-28 = assay: NCI cytotoxicity screen, Melanoma panel; assay type: cell-based; conditions: Homo sapiens, single dose 10 µM, negative = lethal, read-out: Percent growth inhibition
Experimental: as §1

SK-MEL-2 = assay: NCI cytotoxicity screen, Melanoma panel; assay type: cell-based; conditions: Homo sapiens, single dose 10 µM, negative = lethal, read-out: Percent growth inhibition
Experimental: as §1

SK-MEL-5 = assay: NCI cytotoxicity screen, Melanoma panel; assay type: cell-based; conditions: Homo sapiens, single dose 10 µM, negative = lethal, read-out: Percent growth inhibition
Experimental: as §1

UACC-257 = assay: NCI cytotoxicity screen, Melanoma panel; assay type: cell-based; conditions: Homo sapiens, single dose 10 µM, negative = lethal, read-out: Percent growth inhibition
Experimental: as §1

IGROV1 = assay: NCI cytotoxicity screen, Ovarian Cancer panel; assay type: cell-based; conditions: Homo sapiens, IGROV-1, single dose 10 µM, negative = lethal, read-out: Percent growth inhibition
Experimental: as §1

NCI/ADR-RES = assay: NCI cytotoxicity screen, Ovarian Cancer panel; assay type: cell-based; conditions: Homo sapiens, single dose 10 µM, negative = lethal, read-out: Percent growth inhibition
Experimental: as §1

OVCAR-4 = assay: NCI cytotoxicity screen, Ovarian Cancer panel; assay type: cell-based; conditions: Homo sapiens; OVCAR-4; single dose 10 µM; negative = lethal; read-out: Percent growth inhibition
Experimental: as §1

OVCAR-5 = assay: NCI cytotoxicity screen, Ovarian Cancer panel; assay type: cell-based; conditions: Homo sapiens, single dose 10 µM, negative = lethal, read-out: Percent growth inhibition
Experimental: as §1

OVCAR-8 = assay: NCI cytotoxicity screen, Ovarian Cancer panel; assay type: cell-based; conditions: Homo sapiens, single dose 10 µM, negative = lethal, read-out: Percent growth inhibition
Experimental: as §1

SK-OV-3 = assay: NCI cytotoxicity screen, Ovarian Cancer panel; assay type: cell-based; conditions: Homo sapiens, single dose 10 µM, negative = lethal, read-out: Percent growth inhibition
Experimental: as §1

ACHN = assay: NCI cytotoxicity screen, Renal Cancer panel; assay type: cell-based; conditions: Homo sapiens, single dose 10 µM, negative = lethal, read-out: Percent growth inhibition
Experimental: as §1

CAKI-1 = assay: NCI cytotoxicity screen, Renal Cancer panel; assay type: cell-based; conditions: Homo sapiens; CAKI-1; single dose 10 µM; negative = lethal; read-out: Percent growth inhibition
Experimental: as §1

RXF 393 = assay: NCI cytotoxicity screen, Renal Cancer panel; assay type: cell-based; conditions: Homo sapiens, single dose 10 µM, negative = lethal, read-out: Percent growth inhibition
Experimental: as §1

SN12C = assay: NCI cytotoxicity screen, Renal Cancer panel; assay type: cell-based; conditions: Homo sapiens, single dose 10 µM, negative = lethal, read-out: Percent growth inhibition
Experimental: as §1

UO-31 = assay: NCI cytotoxicity screen, Renal Cancer panel; assay type: cell-based; conditions: Homo sapiens, single dose 10 µM, negative = lethal, read-out: Percent growth inhibition
Experimental: as §1

DU-145 = assay: NCI cytotoxicity screen, Prostate Cancer panel; assay type: cell-based, human; conditions: Homo sapiens, single dose 10 µM, negative = lethal, read-out: Percent growth inhibition
Experimental: as §1

PC-3 = assay: NCI cytotoxicity screen, Prostate Cancer panel; assay type: cell-based, human; conditions: Homo sapiens, single dose 10 µM, negative = lethal, read-out: Percent growth inhibition
Experimental: as §1

BT-549 = assay: NCI cytotoxicity screen, Breast Cancer panel; assay type: cell-based; conditions: Homo sapiens, single dose 10 µM, negative = lethal, read-out: Percent growth inhibition
Experimental: as §1

HS 578 T = assay: NCI cytotoxicity screen, Breast Cancer panel; assay type: cell-based; conditions: Homo sapiens; HS 578T; single dose 10 µM; negative = lethal; read-out: Percent growth inhibition
Experimental: as §1

MCF7 = assay: NCI cytotoxicity screen, Breast Cancer panel; assay type: cell-based; conditions: Homo sapiens, single dose 10 µM, negative = lethal, read-out: Percent growth inhibition
Experimental: as §1

MDA-MB-231/ATCC = assay: NCI cytotoxicity screen, Breast Cancer panel; assay type: cell-based; conditions: Homo sapiens, MDA-MB-231, read-out: Percent growth inhibition
Experimental: as §1

MDA-MB-468 = assay: NCI cytotoxicity screen, Breast Cancer panel; assay type: cell-based; conditions: Homo sapiens, single dose 10 µM, negative = lethal, read-out: Percent growth inhibition
Experimental: as §1

T-47D = assay: NCI cytotoxicity screen, Breast Cancer panel; assay type: cell-based; conditions: Homo sapiens, T47D, T-47D; single dose 10 µM; negative = lethal; read-out: Percent growth inhibition
Experimental: as §1

[1] = Experimental log P, shake-flask method; assay type: physicochemical; conditions: n-octanol/phosphate buffer pH 7.4, read-out: Exp. Log P
How it was run: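 Shake-flask partitioning between n-octanol and phosphate buffer pH 7.4, shaken 50 min, then centrifuged 35 min at 2500 rpm. Buffer-phase absorbance at each compound's λmax measured before and after partitioning. P calculated from absorbance drop and phase volume ratio.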

Structure (SMILES): c1cn2cc(-c3ccsc3)nc(-c3ccc4c(c3)ncn4C3CCCCC3)c2n1 [Compound 14, 8-(1-cyclohexyl-1H-benzo[d]imidazol-5-yl)-6-(thiophen-3-yl)imidazo[1,2-a]pyrazine]
- inhibition at 10 µM (CCRF-CEM): 1.1%
- inhibition at 10 µM (HL-60(TB)): 2.65%
- inhibition at 10 µM (K-562): 9.6%
- inhibition at 10 µM (MOLT-4): 14.3%
- inhibition at 10 µM (RPMI-8226): 20.8%
- inhibition at 10 µM (SR): 23.6%
- inhibition at 10 µM (NCI-522): 10.4%
- inhibition at 10 µM (NCI-H226): < 1%
- inhibition at 10 µM (NCI-H23): 8.6%
- inhibition at 10 µM (NCI-H322M): 1.19%
- inhibition at 10 µM (HCC-2998): < 1%
- inhibition at 10 µM (KM12): 11.7%
- inhibition at 10 µM (SW-620): < 1%
- inhibition at 10 µM (LOX IMVI): 14.5%
- inhibition at 10 µM (M14): 3.43%
- inhibition at 10 µM (UACC-62): 18.5%
- inhibition at 10 µM (MALME-3M): 3.01%
- inhibition at 10 µM (MDA-MB-435): 6%
- inhibition at 10 µM (SK-MEL-28): < 1%
- inhibition at 10 µM (SK-MEL-2): 0.58%
- inhibition at 10 µM (SK-MEL-5): 24.8%
- inhibition at 10 µM (UACC-257): < 1%
- inhibition at 10 µM (IGROV1): 19.1%
- inhibition at 10 µM (NCI/ADR-RES): 4.17%
- inhibition at 10 µM (OVCAR-4): < 1%
- inhibition at 10 µM (OVCAR-5): < 1%
- inhibition at 10 µM (OVCAR-8): 6.38%
- inhibition at 10 µM (SK-OV-3): < 1%
- inhibition at 10 µM (ACHN): 4.32%
- inhibition at 10 µM (CAKI-1): < 1%
- inhibition at 10 µM (RXF 393): < 1%
- inhibition at 10 µM (SN12C): 6.33%
- inhibition at 10 µM (UO-31): 23.1%
- inhibition at 10 µM (DU-145): < 1%
- inhibition at 10 µM (PC-3): 17.9%
- inhibition at 10 µM (BT-549): 4.68%
- inhibition at 10 µM (HS 578 T): 6.34%
- inhibition at 10 µM (MCF7): 12%
- inhibition at 10 µM (MDA-MB-231/ATCC): 7.65%
- inhibition at 10 µM (MDA-MB-468): 0.73%
- inhibition at 10 µM (T-47D): > 50%
- logP [1]: 1.63
- melting point: 185 to 188 °C

Structure (SMILES): c1csc(-c2cn3ccnc3c(-c3ccc4c(c3)ncn4C3CCCCC3)n2)c1 [Compound 22, 8-(1-cyclohexyl-1H-benzo[d]imidazol-5-yl)-6-(thiophen-2-yl)imidazo[1,2-a]pyrazine]
- inhibition at 10 µM (CCRF-CEM): < 1%
- inhibition at 10 µM (HL-60(TB)): 0.87%
- inhibition at 10 µM (K-562): < 1%
- inhibition at 10 µM (MOLT-4): 12.4%
- inhibition at 10 µM (RPMI-8226): < 1%
- inhibition at 10 µM (SR): 15%
- inhibition at 10 µM (NCI-522): 14.6%
- inhibition at 10 µM (NCI-H226): < 1%
- inhibition at 10 µM (NCI-H23): 5.56%
- inhibition at 10 µM (NCI-H322M): 0.45%
- inhibition at 10 µM (HCC-2998): < 1%
- inhibition at 10 µM (KM12): 6.84%
- inhibition at 10 µM (SW-620): < 1%
- inhibition at 10 µM (LOX IMVI): 1.01%
- inhibition at 10 µM (M14): < 1%
- inhibition at 10 µM (UACC-62): 0.23%
- inhibition at 10 µM (MALME-3M): < 1%
- inhibition at 10 µM (MDA-MB-435): < 1%
- inhibition at 10 µM (SK-MEL-28): < 1%
- inhibition at 10 µM (SK-MEL-2): 13.1%
- inhibition at 10 µM (SK-MEL-5): 1.16%
- inhibition at 10 µM (UACC-257): < 1%
- inhibition at 10 µM (IGROV1): < 1%
- inhibition at 10 µM (NCI/ADR-RES): 6.79%
- inhibition at 10 µM (OVCAR-4): < 1%
- inhibition at 10 µM (OVCAR-5): < 1%
- inhibition at 10 µM (OVCAR-8): < 1%
- inhibition at 10 µM (SK-OV-3): < 1%
- inhibition at 10 µM (ACHN): < 1%
- inhibition at 10 µM (CAKI-1): < 1%
- inhibition at 10 µM (RXF 393): < 1%
- inhibition at 10 µM (SN12C): < 1%
- inhibition at 10 µM (UO-31): 16.4%
- inhibition at 10 µM (DU-145): 3.63%
- inhibition at 10 µM (PC-3): 7.16%
- inhibition at 10 µM (BT-549): < 1%
- inhibition at 10 µM (HS 578 T): < 1%
- inhibition at 10 µM (MCF7): 34%
- inhibition at 10 µM (MDA-MB-231/ATCC): 7.47%
- inhibition at 10 µM (MDA-MB-468): 28.3%
- inhibition at 10 µM (T-47D): 37.3%
- logP [1]: 1.37
- melting point: 187 to 190 °C
